Data set [1] concerns the target T1, Rat Adenosine A2A Receptor (Rattus norvegicus, UniProt P30543).
T1 construct: tissue Nippon SLC (animals); host or cells: rat (SD) corpus striatum membrane homogenate
Nature of the data set: Adenosine A2A receptor binding test (3H-CGS21680 binding, rat corpus striatum). The following applies: test compound 10^−7 mol/L, 25° C., 120 minutes, read-out: Rat Adenosine A2A Receptor Binding Inhibition rate (%) (10^−7 mol/L). How it is done: This test was carried but in a similar manner to a Bruns et al's method (Molecular Pharmacology, Vol. 29, p. 331, 1986).
Corpus striatum of rats (SD rat, by Nippon SLC) was suspended in 50 mL of an ice-cooled 50 mmol/L tris(hydroxymethyl)aminomethane hydrochloride (Tris-HCl) buffer (pH 7.7) using a polytron homogenizer (by Kinematica). The resulting homogenate was centrifuged (48,000×g, 20 minutes), and the resulting precipitate was again suspended by adding the same amount of a 50 mmol/L Tris-HCl buffer, followed by centrifugation under the same condition. The resulting final precipitate was suspended by adding a 50 mmol/L Tris-HCl buffer [containing 10 mmol/L magnesium chloride, adenosine deaminase 0.02 units/mg tissue (by Sigma)] so that the tissue concentration was 5 mg (wet weight)/mL.
To 100 μL of the above purified tissue suspension, were added 80 μL (final concentration […]) of tritium-labeled CGS-21680 {^3H-2-[p-(2-carboxyethyl)phenethylamino]-5′-(N-ethylcarboxamido)-adenosine: 40 curies/mmol; by New England Nuclear [The Journal of Pharmacology and Experimental Therapeutics, Vol. 251, p. 888, 1989]} and 20 μL of a test compound solution (10^−7 mol/L; a solution of a test compound in DMSO was diluted with Tris-HCl buffer). The resulting mixture was allowed to stand at 25° C. for 120 minutes, followed by rapid suction filtration through a glass fiber paper filter (GF/C; by Whatman). The filter was immediately washed three times with 200 μL of an ice-cooled 50 mmol/L Tris-HCl buffer. The glass fiber paper filter was transferred into a vial, Microscinti (by Perkin Elmer) was added thereto, and the radioactivity level was measured with Topcount (by Perkin Elmer).
The inhibition rate of the test compound to the adenosine A2A receptor binding (^3H-CGS21680 binding) was calculated according to the following formula.
Amount of total binding means the ^3H-CGS21680 binding radioactivity content in the absence of the test compound. Amount of non-specific binding means the ^3H-CGS21680 binding radioactivity content in the presence of 100 μmol/L cyclopentyladenosine (CPA; by Sigma). Amount of binding in the presence of test compound means the ^3H-CGS21680 binding radioactivity content in the presence of 10^−7 mol/L of the test compound.

The subject of data set [2] is MPTP-treated common marmoset. The experiment in a line: Effect in Parkinson's disease model (MPTP-treated common marmoset), motor disability score. In kind it is in vivo. The following applies: oral administration, 10 mg/kg; MPTP-treated common marmosets; scored at 30 minute intervals for 8 hours. The source says:
Parkinson's disease is a disorder based on the degeneration and lack of dopaminergic neurons in the nigro-striatal pathway. In the primates, treatment with a dopamine neurotoxin, that is MPTP, causes selective degeneration and lack of the dopaminergic neurons in the nigro-striatal pathway and causes a symptom such as akinesia and muscular rigidity. The MPTP-treated primate is known as a Parkinson's disease model (Proceedings of the National Academy of Science USA, Vol. 80, p. 4546, 1983). Also, common marmoset belongs to Anthropoidea, and is known to have parkinsonism caused by MPTP like others of Anthropoidea (Neuroscience Letter, Vol. 57, p. 37, 1985).
The experiment was carried out using four male and female common marmosets of 2 or 3 years old (body weight, 300 to 375 g, by Nippon Clea) per group. […] The motor disability of the animals before the administration of the test compound was scored, and this was compared with the motor disability score after orally administration of the test compound (Compound 1) in a dose of 10 mg/kg. As, the parkinsonian symptoms, the motor disabilities were scored at intervals of 30 minutes for 8 hours, by observation through a one-way viewing window. The spontaneous locomotor activity was measured at intervals of 30 minutes for 12 hours by a computer-controlled automatic measuring apparatus. […]

T1 sequence (P30543 whole entry): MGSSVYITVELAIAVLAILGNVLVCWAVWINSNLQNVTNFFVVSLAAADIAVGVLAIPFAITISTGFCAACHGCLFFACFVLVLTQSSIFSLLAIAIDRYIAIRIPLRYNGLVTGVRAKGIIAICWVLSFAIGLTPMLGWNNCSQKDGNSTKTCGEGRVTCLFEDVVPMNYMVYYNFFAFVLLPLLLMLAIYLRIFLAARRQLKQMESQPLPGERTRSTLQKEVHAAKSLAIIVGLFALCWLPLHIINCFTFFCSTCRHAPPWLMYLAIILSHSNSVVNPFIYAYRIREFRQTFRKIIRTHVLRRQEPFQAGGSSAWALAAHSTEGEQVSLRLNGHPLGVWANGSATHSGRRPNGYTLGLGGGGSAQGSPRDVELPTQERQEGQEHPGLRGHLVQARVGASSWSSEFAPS

`O=C(Nc1nc(-c2ccco2)c(-c2ccncc2)s1)c1ccncc1` [Compound 1, N-[4-(2-Furyl)-5-(4-pyridyl)thiazol-2-yl]pyridine-4-carboxamide]: the inhibition at 0.1 µM in data set [1] is 90%. Further, the “remission of the parkinsonian symptoms (motor disability score before vs after administration)” value in data set [2] is listed as “effective for remission of the parkinsonian symptoms”.
In the case of `O=C(Nc1nc(-c2ccco2)c(C(=O)c2ccccc2)s1)c1ccc(=O)[nH]c1` [Compound 149, N-[5-Benzoyl-4-(2-furyl)thiazol-2-yl]-2-oxo-1,2-dihydropyridine-5-carboxamide], the melting point was greater than 300 °C. The inhibition at 0.1 µM in data set [1] turned out to be 91%.
The like results for `O=C(Nc1nc(-c2ccco2)c(C(=O)c2ccccn2)s1)c1ccncc1` [Compound 187, N-[4-(2-Furyl)-5-(pyridin-2-ylcarbonyl)thiazol-2-yl]pyridine-4-carboxamide] were, in that order, 218 to 227 °C and 86%.
The compound `O=C(c1ccccn1)c1sc(NC(=O)C2CC2)nc1-c1ccco1` [Compound 191, N-[4-(2-Furyl)-5-(pyridin-2-ylcarbonyl)thiazol-2-yl]cyclopropanecarboxamide] came in with a melting point of 191 to 192 °C. Further, in data set [1], the inhibition at 0.1 µM is 98%.
The like results for `N#Cc1ccc(C(=O)Nc2nc(-c3ccco3)c(C(=O)c3ccccn3)s2)cc1` [Compound 206, 4-Cyano-N-[4-(2-furyl)-5-(pyridin-2-ylcarbonyl)thiazol-2-yl]benzamide] were, in that order, 232 to 235 °C and 95%.
Compound `O=C(Nc1nc(-c2ccco2)c(C(=O)c2ccccn2)s1)c1ccco1` [Compound 234, N-[4-(2-Furyl)-5-(pyridin-2-ylcarbonyl)thiazol-2-yl]furan-2-carboxamide] registered a melting point of 184 to 185 °C. Further, the inhibition at 0.1 µM in data set [1] came to 100%.
The like results for `O=C(Nc1nc(-c2ccco2)c(C(=O)c2nccs2)s1)c1ccncc1` [Compound 348, N-[4-(2-Furyl)-5-(thiazol-2-ylcarbonyl)thiazol-2-yl]pyridine-4-carboxamide] were, in that order, 228 to 240 °C and 100%.
`O=C(Nc1nc(-c2ccco2)c(C(=O)C2CCOCC2)s1)c1ccncc1` [Compound 455, N-[4-(2-Furyl)-5-(tetrahydropyran-4-ylcarbonyl)thiazol-2-yl]pyridine-4-carboxamide]: the melting point fell in the range of 202 to 209 °C. Besides, the inhibition at 0.1 µM in data set [1] is 100%.
In the case of `O=C(Nc1nc(-c2ccco2)c(C(=O)C2CCOCC2)s1)C1CC1` [Compound 456, N-[4-(2-Furyl)-5-(tetrahydropyran-4-ylcarbonyl)thiazol-2-yl]cyclopropanecarboxamide], the melting point lay within 182 to 183 °C. Also, the inhibition at 0.1 µM in data set [1] worked out at 94%.
The like results for `COc1cccc(C(=O)Nc2nc(-c3ccco3)c(C(=O)C3CCOCC3)s2)c1` [Compound 462, N-[4-(2-Furyl)-5-(tetrahydropyran-4-ylcarbonyl)thiazol-2-yl]-3-methoxybenzamide] were, in that order, 198 to 200 °C and 99%.
Turning to `O=C(Nc1nc(-c2ccco2)c(C(=O)C2CCOCC2)s1)c1ccc(F)cc1` [Compound 468, 4-Fluoro-N-[4-(2-furyl)-5-(tetrahydropyran-4-ylcarbonyl)thiazol-2-yl]benzamide], the melting point is 131 to 132 °C. The inhibition at 0.1 µM in data set [1] was 93%.
The corresponding values for `O=C(Nc1nc(-c2ccco2)c(C(=O)C2CCOCC2)s1)c1ccc(Cl)nc1` [Compound 502, 2-Chloro-N-[4-(2-furyl)-5-(tetrahydropyran-4-ylcarbonyl)thiazol-2-yl]pyridine-5-carboxamide] are 233 to 235 °C and 90%.
Consider `O=C(Nc1nc(-c2ccco2)c(C(=O)C2CCOCC2)s1)c1ccco1` [Compound 511, N-[4-(2-Furyl)-5-(tetrahydropyran-4-ylcarbonyl)thiazol-2-yl]furan-2-carboxamide], for which the melting point lay in the range of 196 to 198 °C. In addition, the inhibition at 0.1 µM in data set [1] was found to be 88%.
The like results for `N#Cc1ccc(C(=O)Nc2nc(-c3ccco3)c(C(=O)C3CCOCC3)s2)o1` [Compound 515, 5-Cyano-N-[4-(2-furyl)-5-(tetrahydropyran-4-ylcarbonyl)thiazol-2-yl]furan-2-carboxamide] were, in that order, 222 to 223 °C and 95%.

The values above are taken from patent US7718808B2, “Thiazole derivatives” (Kyowa Hakko Kirin Co., Ltd., priority 2003, dated 2010).
